Laboratory results: patent publication US10214519B2, “Phosphatidylinositol 3-kinase inhibitors” (Gilead Sciences, Inc., priority 2016, dated 2019)

Each compound was assayed against PI3Kβ (Homo sapiens (Human), UniProt P42338) (assay: PI3K isoform TR-FRET enzymatic assay (PI3Kβ)). Conditions: 2× Km ATP, 30 minutes at 25° C.
Format: biochemical
In short: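 Heterodimeric recombinant PI3Kβ was incubated with compound 30 minutes at 25° C. Product was detected by TR-FRET competition with 10 nM labeled PIP3 for 35 nM Eu-GRP-1 PH domain after EDTA stop. Data were normalized to 1 μM wortmannin and DMSO, and IC50 was taken from a four-parameter fit.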

Sequence of PI3Kβ (P42338 whole entry, canonical isoform): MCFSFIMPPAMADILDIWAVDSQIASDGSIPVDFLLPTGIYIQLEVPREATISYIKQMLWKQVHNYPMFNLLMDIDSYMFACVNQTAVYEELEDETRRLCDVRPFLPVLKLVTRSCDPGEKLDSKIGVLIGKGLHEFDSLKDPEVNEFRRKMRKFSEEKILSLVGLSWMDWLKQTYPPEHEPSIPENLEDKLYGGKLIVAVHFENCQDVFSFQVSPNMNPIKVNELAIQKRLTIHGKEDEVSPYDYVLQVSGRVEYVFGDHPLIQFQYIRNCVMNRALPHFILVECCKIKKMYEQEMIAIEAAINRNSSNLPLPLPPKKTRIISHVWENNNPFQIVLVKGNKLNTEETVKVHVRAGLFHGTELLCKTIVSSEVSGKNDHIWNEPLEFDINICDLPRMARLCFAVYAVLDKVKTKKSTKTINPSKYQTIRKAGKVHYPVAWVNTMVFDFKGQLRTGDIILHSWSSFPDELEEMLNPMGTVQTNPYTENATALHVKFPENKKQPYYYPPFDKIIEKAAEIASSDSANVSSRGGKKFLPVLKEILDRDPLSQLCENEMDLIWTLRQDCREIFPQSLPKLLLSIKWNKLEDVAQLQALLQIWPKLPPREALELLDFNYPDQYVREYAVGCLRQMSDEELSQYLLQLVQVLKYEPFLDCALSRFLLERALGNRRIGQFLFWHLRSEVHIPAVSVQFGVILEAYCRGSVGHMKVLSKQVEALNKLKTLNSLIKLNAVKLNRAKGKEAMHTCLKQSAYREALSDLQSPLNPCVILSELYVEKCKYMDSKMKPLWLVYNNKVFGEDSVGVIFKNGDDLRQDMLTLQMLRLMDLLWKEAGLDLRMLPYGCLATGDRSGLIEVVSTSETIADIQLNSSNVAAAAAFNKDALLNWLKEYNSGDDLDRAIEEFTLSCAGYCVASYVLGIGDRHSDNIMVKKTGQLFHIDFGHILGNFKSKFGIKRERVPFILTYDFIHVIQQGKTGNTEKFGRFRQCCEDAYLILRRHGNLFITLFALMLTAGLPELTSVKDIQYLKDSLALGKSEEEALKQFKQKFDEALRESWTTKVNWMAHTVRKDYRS
Sequence of PI3Kβ (P27986 whole entry partner, canonical isoform): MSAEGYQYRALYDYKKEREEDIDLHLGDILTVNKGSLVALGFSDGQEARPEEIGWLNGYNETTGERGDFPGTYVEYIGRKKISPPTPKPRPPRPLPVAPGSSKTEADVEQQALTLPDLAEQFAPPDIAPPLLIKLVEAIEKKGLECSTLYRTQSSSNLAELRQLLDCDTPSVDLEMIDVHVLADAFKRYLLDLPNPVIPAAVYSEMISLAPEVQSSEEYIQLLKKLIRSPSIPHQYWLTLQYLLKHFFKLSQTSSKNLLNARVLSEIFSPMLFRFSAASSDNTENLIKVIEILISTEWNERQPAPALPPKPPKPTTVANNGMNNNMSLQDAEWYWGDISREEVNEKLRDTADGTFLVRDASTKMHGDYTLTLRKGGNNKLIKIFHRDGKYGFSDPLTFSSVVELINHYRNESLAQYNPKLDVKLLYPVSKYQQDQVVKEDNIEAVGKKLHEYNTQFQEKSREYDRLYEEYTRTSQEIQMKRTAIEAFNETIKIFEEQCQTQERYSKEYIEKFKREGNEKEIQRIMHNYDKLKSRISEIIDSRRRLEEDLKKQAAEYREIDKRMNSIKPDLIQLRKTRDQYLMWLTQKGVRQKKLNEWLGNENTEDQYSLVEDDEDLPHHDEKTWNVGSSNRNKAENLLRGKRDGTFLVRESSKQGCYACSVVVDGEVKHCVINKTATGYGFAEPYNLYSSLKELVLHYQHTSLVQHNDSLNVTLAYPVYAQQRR

| IC50 [nM] | SMILES |
| --- | --- |
| 13 | CCc1nc2c(-c3nnc[nH]3)cc(N3CCOCC3)cc2n1-c1c(Cl)cnc2c(Cl)cccc12 [Example 98, 4-[3-(3,8-dichloroquinolin-4-yl)-2-ethyl-7-(4H-1,2,4-triazol-3-yl)benzimidazol-5-yl]morpholine] |
| 1900 | Cc1nc2c(-c3ncco3)cc(N3CCOCC3)cc2n1-c1ccnc2c(F)cccc12 (atropisomer, axis not shown) [Example 340, 4-[3-(8-fluoroquinolin-4-yl)-2-methyl-7-(1,3-oxazol-2-yl)benzimidazol-5-yl]morpholine] |
| 65 | Cc1nc2c(-c3ccsc3)cc(N3CCOCC3)cc2n1-c1ccnc2c(Cl)cccc12 [Example 272, 4-[3-(8-chloroquinolin-4-yl)-2-methyl-7-thiophen-3-ylbenzimidazol-5-yl]morpholine] |
| 23 | Cc1cccc2nccc(-n3cnc4c(-c5nnc[nH]5)cc(N5CCOCC5)cc43)c12 [Example 127, 4-[3-(5-methylquinolin-4-yl)-7-(4H-1,2,4-triazol-3-yl)benzimidazol-5-yl]morpholine] |
| 9 | CCc1nc2c(-c3ncco3)cc(N3CCOCC3)cc2n1-c1ccnc2c(F)ccc(F)c12 [Example 217, 4-[3-(5,8-difluoroquinolin-4-yl)-2-ethyl-7-(1,3-oxazol-2-yl)benzimidazol-5-yl]morpholine] |
| 34 | CCCc1nc2c(-c3nnc(Cl)[nH]3)cc(N3CCOCC3)cc2n1-c1ccnc2c(F)ccc(F)c12 [Example 182, 4-[7-(5-chloro-4H-1,2,4-triazol-3-yl)-3-(5,8-difluoroquinolin-4-yl)-2-propylbenzimidazol-5-yl]morpholine] |
| 33 | Clc1cccc2c(-n3c(C4CCOC4)nc4c(-c5nnc[nH]5)cc(N5CCOCC5)cc43)ccnc12 (stereo not shown) [Example 9, 4-(1-(8-chloroquinolin-4-yl)-2-(tetrahydrofuran-3-yl)-4-(4H-1,2,4-triazol-3-yl)-1H-benzo[d]imidazol-6-yl)morpholine] |
| 17 | Clc1cccc2c(-n3c(C4COC4)nc4c(-c5nnc[nH]5)cc(N5CCOCC5)cc43)ccnc12 [Example 113, 4-[3-(8-chloroquinolin-4-yl)-2-(oxetan-3-yl)-7-(4H-1,2,4-triazol-3-yl)benzimidazol-5-yl]morpholine] |
| 3 | Fc1ccc(F)c2c(-n3cnc4c(-c5nnc[nH]5)cc(N5CCOCC5)cc43)ccnc12 [Example 28, 4-(1-(5,8-difluoroquinolin-4-yl)-4-(4H-1,2,4-triazol-3-yl)-1H-benzo[d]imidazol-6-yl)morpholine] |
| 170 | Cc1nc2c(-c3cn[nH]c3)cc(N3CCOCC3)cc2n1-c1ccnc2c(Cl)cccc12 [Example 183, 4-(1-(8-chloroquinolin-4-yl)-2-methyl-4-(1H-pyrazol-4-yl)-1H-benzo[d]imidazol-6-yl)morpholine] |
| 130 | CCCc1nc2c(-c3nnc(C)[nH]3)cc(N3CCOCC3)cc2n1-c1ccnc2cc(F)ccc12 [Example 21, 4-(1-(7-fluoroquinolin-4-yl)-4-(5-methyl-4H-1,2,4-triazol-3-yl)-2-propyl-1H-benzo[d]imidazol-6-yl)morpholine] |
| 12 | CCCc1nc2c(-c3ncco3)cc(N3CCOCC3)cc2n1-c1ccnc2c(Cl)cc(F)cc12 [Example 222, 4-[3-(8-chloro-6-fluoroquinolin-4-yl)-7-(1,3-oxazol-2-yl)-2-propylbenzimidazol-5-yl]morpholine] |
| 11 | Cc1nc2c(-c3nnc[nH]3)cc(N3CCOCC3)cc2n1-c1ccnc2c(Cl)c(F)ccc12 [Example 39, 4-(1-(8-chloro-7-fluoroquinolin-4-yl)-2-methyl-4-(4H-1,2,4-triazol-3-yl)-1H-benzo[d]imidazol-6-yl)morpholine] |
| 8000 | Cc1cccc2nccc(-n3c(C)nc4c(-c5nnc[nH]5)cc(N5CCOCC5)cc43)c12 (atropisomer, axis not shown) [Compound 363, 4-[2-methyl-3-(5-methylquinolin-4-yl)-7-(4H-1,2,4-triazol-3-yl)benzimidazol-5-yl]morpholine] |
| 2200 | Cc1nnc(-c2cc(N3CCOCC3)cc3c2nc(C)n3-c2c(F)cnc3ccccc23)[nH]1 [Example 154, 4-(1-(3-fluoroquinolin-4-yl)-2-methyl-4-(5-methyl-4H-1,2,4-triazol-3-yl)-1H-benzo[d]imidazol-6-yl)morpholine] |
| 390 | Cc1nnc(-c2cc(N3CCOCC3)cc3c2nc(-c2cccnc2)n3-c2ccnc3c(Cl)cccc23)[nH]1 [Example 23, 4-(1-(8-chloroquinolin-4-yl)-4-(5-methyl-4H-1,2,4-triazol-3-yl)-2-(pyridin-3-yl)-1H-benzo[d]imidazol-6-yl)morpholine] |

| IC50 [nM] | SMILES |
| --- | --- |
| 21 | Cc1cc(-n2c(C)nc3c(-c4nnc[nH]4)cc(N4CCOCC4)cc32)c2cccc(Cl)c2n1 [Example 64, 4-[3-(8-chloro-2-methylquinolin-4-yl)-2-methyl-7-(4H-1,2,4-triazol-3-yl)benzimidazol-5-yl]morpholine] |
| 110 | Cc1nnc(-c2cc(N3CCOCC3)cc3c2nc(C)n3-c2ccnc3ccccc23)[nH]1 [Example 19, 4-(2-methyl-4-(5-methyl-4H-1,2,4-triazol-3-yl)-1-(quinolin-4-yl)-1H-benzo[d]imidazol-6-yl)morpholine] |
| 4 | Cc1nc2c(-c3cnc(Cl)[nH]3)cc(N3CCOCC3)cc2n1-c1ccnc2c(Cl)cccc12 [Example 278, 4-[7-(2-chloro-1H-imidazol-5-yl)-3-(8-chloroquinolin-4-yl)-2-methylbenzimidazol-5-yl]morpholine] |
| 24 | CCc1nc2c(-c3cnc[nH]3)cc(N3CCOCC3)cc2n1-c1cc(C)nc2c(Cl)ccc(Cl)c12 [Example 334, 4-[3-(5,8-dichloro-2-methylquinolin-4-yl)-2-ethyl-7-(1H-imidazol-5-yl)benzimidazol-5-yl]morpholine] |
| 21 | Cc1nc2c(-c3nnc[nH]3)cc(N3CCOCC3)cc2n1-c1ccnc2c(F)ccc(Cl)c12 [Example 126, 4-[3-(5-chloro-8-fluoroquinolin-4-yl)-2-methyl-7-(4H-1,2,4-triazol-3-yl)benzimidazol-5-yl]morpholine] |
| 10 | CCc1nc2c(-c3nnc[nH]3)cc(N3CCOCC3)cc2n1-c1ccnc2c(Cl)cccc12 [Example 105, 4-[3-(8-chloroquinolin-4-yl)-2-ethyl-7-(4H-1,2,4-triazol-3-yl)benzimidazol-5-yl]morpholine] |
| 15 | Cc1nc2c(-c3cnc[nH]3)cc(N3CCOCC3)cc2n1-c1ccnc2c(F)ccc(F)c12 [Example 335, 4-[3-(5,8-difluoroquinolin-4-yl)-7-(1H-imidazol-5-yl)-2-methylbenzimidazol-5-yl]morpholine] |
| 27 | Cc1n[nH]c(-c2cc(N3CCOCC3)cc3c2nc(C)n3-c2c(C)cnc3c(Cl)cccc23)n1 [Example 78, 4-[3-(8-chloro-3-methylquinolin-4-yl)-2-methyl-7-(3-methyl-1H-1,2,4-triazol-5-yl)benzimidazol-5-yl]morpholine] |
| 11 | Fc1ccc(F)c2c(-n3c(CC4CC4)nc4c(-c5ncco5)cc(N5CCOCC5)cc43)ccnc12 [Example 221, 4-[2-(cyclopropylmethyl)-3-(5,8-difluoroquinolin-4-yl)-7-(1,3-oxazol-2-yl)benzimidazol-5-yl]morpholine] |
| 27 | Cc1nc2c(F)cccc2c(-n2c(C)nc3c(-c4nnc[nH]4)cc(N4CCOCC4)cc32)c1C [Example 61, 4-[3-(8-fluoro-2,3-dimethylquinolin-4-yl)-2-methyl-7-(4H-1,2,4-triazol-3-yl)benzimidazol-5-yl]morpholine] |
| 11 | Cc1nc2c(-c3nnc[nH]3)cc(N3CCOCC3)cc2n1-c1ccnc2cccc(F)c12 [Example 81, 4-[3-(5-fluoroquinolin-4-yl)-2-methyl-7-(4H-1,2,4-triazol-3-yl)benzimidazol-5-yl]morpholine] |
| 36 | CCc1nc2c(-c3cnc(Cl)[nH]3)cc(N3CCOCC3)cc2n1-c1ccnc2c(F)ccc(Cl)c12 [Example 310, 4-[3-(5-chloro-8-fluoroquinolin-4-yl)-7-(2-chloro-1H-imidazol-5-yl)-2-ethylbenzimidazol-5-yl]morpholine] |
| 63 | Cc1nnc(-c2cc(N3CCOCC3)cc3c2nc(C)n3-c2ccnc3c(Cl)cc(F)cc23)[nH]1 [Example 18, 4-(1-(8-chloro-6-fluoroquinolin-4-yl)-2-methyl-4-(5-methyl-4H-1,2,4-triazol-3-yl)-1H-benzo[d]imidazol-6-yl)morpholine] |
| 49 | Cc1nnc(-c2cc(N3CCOCC3)cc3c2nc(C(C)C)n3-c2ccnc3c(Cl)cccc23)[nH]1 [Example 14, 4-(1-(8-chloroquinolin-4-yl)-2-isopropyl-4-(5-methyl-4H-1,2,4-triazol-3-yl)-1H-benzo[d]imidazol-6-yl)morpholine] |
| 5 | Cc1nc2c(-c3ncco3)cc(N3CCOCC3)cc2n1-c1ccnc2c(F)ccc(F)c12 [Example 229, 4-[3-(5,8-difluoroquinolin-4-yl)-2-methyl-7-(1,3-oxazol-2-yl)benzimidazol-5-yl]morpholine] |
